Active and inactive are the calls of the source. The calls are words filed in the database; no cut-off is given here.
Columns and labels:
[1] = target: T1, DNA topoisomerase 1 (Homo sapiens) (UniProt P11387); test: Inhibition of human DNA topoisomerase 1 assessed as inhibition of DNA cleavage
T1 sequence (whole entry): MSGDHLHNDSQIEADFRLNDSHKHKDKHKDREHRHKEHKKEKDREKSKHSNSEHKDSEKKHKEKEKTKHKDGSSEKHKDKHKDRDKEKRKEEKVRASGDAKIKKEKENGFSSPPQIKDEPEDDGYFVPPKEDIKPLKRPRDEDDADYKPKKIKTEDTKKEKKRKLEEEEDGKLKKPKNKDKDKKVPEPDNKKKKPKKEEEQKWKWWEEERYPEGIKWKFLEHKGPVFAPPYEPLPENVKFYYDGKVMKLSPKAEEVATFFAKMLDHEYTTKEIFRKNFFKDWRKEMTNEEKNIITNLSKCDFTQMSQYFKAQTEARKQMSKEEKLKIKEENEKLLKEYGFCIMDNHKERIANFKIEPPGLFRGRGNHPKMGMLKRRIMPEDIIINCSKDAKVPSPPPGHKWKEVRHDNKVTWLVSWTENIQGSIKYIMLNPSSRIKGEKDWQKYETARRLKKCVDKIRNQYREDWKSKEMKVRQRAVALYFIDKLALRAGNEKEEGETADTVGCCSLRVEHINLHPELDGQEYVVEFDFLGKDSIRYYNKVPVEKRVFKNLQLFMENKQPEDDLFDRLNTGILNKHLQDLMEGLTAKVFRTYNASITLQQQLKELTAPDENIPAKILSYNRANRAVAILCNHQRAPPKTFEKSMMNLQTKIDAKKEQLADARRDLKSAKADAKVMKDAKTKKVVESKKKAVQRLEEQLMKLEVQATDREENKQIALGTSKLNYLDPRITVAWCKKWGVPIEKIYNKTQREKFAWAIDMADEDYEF

HCT-116 [2] = test: Cytotoxicity against human HCT116 cells after 72 hrs by MTT assay; format: functional, cell-based; settings: HCT-116, 72 h
HCT-116 [3] = test: Cell cycle arrest in human HCT116 cells assessed as accumulation at subG1 phase at 0.1 uM after 24 hrs by propidium iodide staining-based FACS analysis (reference value: 2 +/- 0.1 %); format: functional
HCT-116 [4] = test: Cell cycle arrest in human HCT116 cells assessed as accumulation at subG1 phase at 1 uM after 48 hrs by propidium iodide staining-based FACS analysis (reference value: 5 +/- 2 %); format: functional
HCT-116 [5] = test: Cell cycle arrest in human HCT116 cells assessed as accumulation at subG1 phase at 0.1 uM after 48 hrs by propidium iodide staining-based FACS analysis (reference value: 5 +/- 2 %); format: functional
[6] = Cytotoxicity against human H460 cells after 72 hrs by MTT assay; format: functional, cell-based; settings: NCI-H460, 72 h
Calf thymus DNA [7] = test: Binding affinity to calf thymus DNA assessed as hypochromic shift at 20 uM by UV/visible spectrophotometry; format: nucleic-acid assay; settings: Bos taurus
[8] = Drug uptake in human H460 cell nucleoli at 10 uM after 2 hrs by fluorescence microscopy; format: ADME, cell-based; settings: h460, 2 h
HCT-116 [9] = test: Cell cycle arrest in human HCT116 cells assessed as accumulation at G2/M phase at 0.1 uM after 48 hrs by propidium iodide staining-based FACS analysis (reference value: 28 +/- 3 %); format: functional
Escherichia coli [10] = test: Binding affinity to Escherichia coli pUC19 plasmid assessed as induction of topoisomerase1-mediated DNA relaxation at 1 uM incubated for 45 mins prior to topoisomerase1 addition by agarose gel electrophoresis
DNA = test: Induction of DNA damage in plasmid DNA in E. coli S30 cell-free system assessed as inhibition of EGFP translation at 50 uM after 1 hr by fluorescence assay
HCT-116 [11] = test: Cell cycle arrest in human HCT116 cells assessed as accumulation at S phase at 0.1 uM after 48 hrs by propidium iodide staining-based FACS analysis (reference value: 12+/- 5 %); format: functional
Calf thymus DNA [12] = test: Binding affinity to calf thymus DNA assessed as DNA intercalation by circular dichroism analysis; format: nucleic-acid assay; settings: Bos taurus
HCT-116 [13] = test: Cell cycle arrest in human HCT116 cells assessed as accumulation at S phase at 1 uM after 48 hrs by propidium iodide staining-based FACS analysis (reference value: 12+/- 5 %); format: functional
HCT-116 [14] = test: Cell cycle arrest in human HCT116 cells assessed as accumulation at G1 phase at 0.1 uM after 24 hrs by propidium iodide staining-based FACS analysis (reference value: 23 +/- 2 %); format: functional
HCT-116 [15] = test: Cell cycle arrest in human HCT116 cells assessed as accumulation at subG1 phase at 1 uM after 24 hrs by propidium iodide staining-based FACS analysis (reference value: 2 +/- 0.1 %); format: functional
MCF7 = test: Cytotoxicity against human MCF7 cells after 72 hrs by MTT assay; format: functional, cell-based; settings: MCF7, 72 h
Calf thymus DNA [16] = test: Binding affinity to calf thymus DNA assessed as bathochromic shift at 20 uM by UV/visible spectrophotometry; format: nucleic-acid assay; settings: Bos taurus
[17] = Binding affinity to DNA (unknown origin) at 1 to 10 uM after 15 mins by DNA footprinting assay
HCT-116 [18] = test: Cell cycle arrest in human HCT116 cells assessed as accumulation at G1 phase at 0.1 uM after 48 hrs by propidium iodide staining-based FACS analysis (reference value: 60 +/- 2 %); format: functional
HCT-116 [19] = test: Cell cycle arrest in human HCT116 cells assessed as accumulation at G1 phase at 1 uM after 24 hrs by propidium iodide staining-based FACS analysis (reference value: 23 +/- 2 %); format: functional
HCT-116 [20] = test: Cell cycle arrest in human HCT116 cells assessed as accumulation at subG1 phase at 5 uM after 24 hrs by propidium iodide staining-based FACS analysis; format: functional
HCT-116 [21] = test: Cell cycle arrest in human HCT116 cells assessed as accumulation at S phase at 1 uM after 24 hrs by propidium iodide staining-based FACS analysis (reference value: 48 +/- 6 %); format: functional
Escherichia coli [22] = test: Binding affinity to Escherichia coli pUC19 plasmid assessed as nicked DNA at 0.1 to 5 uM by ethidium bromide staining-based agarose gel electrophoresis
HCT-116 [23] = test: Cell cycle arrest in human HCT116 cells assessed as accumulation at G1 phase at 1 uM after 48 hrs by propidium iodide staining-based FACS analysis (reference value: 60 +/- 2 %); format: functional
[24] = Drug uptake in human H460 cell endoplasmic reticulum at 10 uM after 2 hrs by fluorescence microscopy; format: ADME, cell-based; settings: h460, 2 h
HCT-116 [25] = test: Cell cycle arrest in human HCT116 cells assessed as accumulation at subG1 phase after 24 hrs by propidium iodide staining-based FACS analysis; format: functional
HCT-116 [26] = test: Cell cycle arrest in human HCT116 cells assessed as accumulation at G2/M phase at 1 uM after 48 hrs by propidium iodide staining-based FACS analysis (reference value: 28 +/- 3 %); format: functional
HCT-116 [27] = test: Cell cycle arrest in human HCT116 cells assessed as accumulation at G2/M phase at 1 uM after 24 hrs by propidium iodide staining-based FACS analysis (reference value: 29 +/- 8 %); format: functional
HCT-116 [28] = test: Cell cycle arrest in human HCT116 cells assessed as accumulation at S phase at 0.1 uM after 24 hrs by propidium iodide staining-based FACS analysis (reference value: 48 +/- 6 %); format: functional
Homo sapiens = organism: Homo sapiens; test: Inhibition of human DNA topoisomerase 2 assessed as inhibition of DNA cleavage
HCT-116 [29] = test: Cell cycle arrest in human HCT116 cells assessed as accumulation at G2/M phase at 0.1 uM after 24 hrs by propidium iodide staining-based FACS analysis (reference value: 29 +/- 8 %); format: functional
Calf thymus DNA [30] = test: Binding affinity to calf thymus DNA assessed as change in melting temperature at 0.5 drug/DNA ratio by spectrophotometry; format: nucleic-acid assay; settings: Bos taurus
H460 = test: Binding affinity to chromosomal DNA in human H460 cells at 10 uM after 2 hrs by confocal laser scanning microscopy; format: cell-based
Calf thymus DNA [31] = test: Binding affinity to calf thymus DNA assessed as DNA intercalation at 1 to 50 uM by circular dichroism analysis; format: nucleic-acid assay; settings: Bos taurus
[32] = Drug uptake in human H460 cell cytoplasm at 10 uM after 2 hrs by fluorescence microscopy; format: ADME, cell-based; settings: h460, 2 h
[33] = Drug uptake in human H460 cell endosome at 10 uM after 2 hrs by confocal laser scanning microscopy; format: ADME, cell-based; settings: h460, 2 h
[34] = Drug uptake in human H460 cell nucleus at 10 uM after 2 hrs by fluorescence microscopy; format: ADME, cell-based; settings: h460, 2 h
[35] = Drug uptake in human H460 cell lysosome at 10 uM after 2 hrs by confocal laser scanning microscopy; format: ADME, cell-based; settings: h460, 2 h
[36] = Drug uptake in human H460 cell nucleus at 10 uM after 2 hrs by confocal laser scanning microscopy; format: ADME, cell-based; settings: h460, 2 h

For N#Cc1cc2ccc(N3CCNCC3)cc2n2c1nc1ccccc12, the Activity [1] was “inactive”, the IC50 (HCT-116 [2]) was 60 nM and the Activity (HCT-116 [3]) was 2%. The Activity (HCT-116 [4]) was 12%, the Activity (HCT-116 [5]) was 11% and the IC50 [6] was 200 nM. The Activity (Calf thymus DNA [7]) was “Active”, the Drug uptake [8] was “Active” and the Activity (HCT-116 [9]) was 30%. For the same compound, the Activity (Escherichia coli [10]) was “Active”, the inhibition at 50 µM (DNA) was 38% and the Activity (HCT-116 [11]) was 11%. The Activity (Calf thymus DNA [12]) was “Dose-dependent effect”, the Activity (HCT-116 [13]) was 1% and the Activity (HCT-116 [14]) was 19%. The Activity (HCT-116 [15]) was 12%, the IC50 (MCF7) was 200 nM and the Activity (Calf thymus DNA [16]) was “Active”. For the same compound, the Activity [17] was “Active”, the Activity (HCT-116 [18]) was 59% and the Activity (HCT-116 [19]) was 15%. For the same compound, the Activity (HCT-116 [20]) was 40%, the Activity (HCT-116 [21]) was 0% and the Activity (Escherichia coli [22]) was “Active”. For the same compound, the Activity (HCT-116 [23]) was 30%, the Drug uptake [24] was “Active” and the Activity (HCT-116 [25]) was “Dose-dependent effect”. The Activity (HCT-116 [26]) was 69%, the Activity (HCT-116 [27]) was 85% and the Activity (HCT-116 [28]) was 1%. The Activity (Homo sapiens) was “inactive”, the Activity (HCT-116 [29]) was 80% and the ΔTm (Calf thymus DNA [30]) was 17.3 °C.

With CN(C)CCCNc1ccc2cc(C#N)c3nc4ccccc4n3c2c1 the Activity [1] was “inactive”, the IC50 (HCT-116 [2]) was 230 nM and the Activity (HCT-116 [3]) was 6%. For the same compound, the Activity (HCT-116 [4]) was 8%, the Activity (HCT-116 [5]) was 4% and the Activity (H460) was “Active”. The Activity (Calf thymus DNA [31]) was “Active”, the IC50 [6] was 300 nM and the Activity (Calf thymus DNA [7]) was “Active”. It also gave an Activity (HCT-116 [9]) of 17%, an inhibition at 50 µM (DNA) of 72% and an Activity (HCT-116 [11]) of 23%. The Drug uptake [32] was “Active”, the Activity (HCT-116 [13]) was 1% and the Activity (HCT-116 [14]) was 13%. The Activity (HCT-116 [15]) was 5%, the IC50 (MCF7) was 400 nM and the Activity (Calf thymus DNA [16]) was “Active”. The Activity [17] was “Active”, the Activity (HCT-116 [18]) was 60% and the Activity (HCT-116 [19]) was 22%. For the same compound, the Activity (HCT-116 [20]) was 40%, the Activity (HCT-116 [21]) was 13% and the Drug uptake [33] was “Active”. The Activity (Escherichia coli [22]) was “Active”, the Activity (HCT-116 [23]) was 41% and the Activity (HCT-116 [25]) was “Dose-dependent effect”. For the same compound, the Activity (HCT-116 [26]) was 58%, the Activity (HCT-116 [27]) was 65% and the Activity (HCT-116 [28]) was 47%. The Drug uptake [34] was “Active”, the Activity (Homo sapiens) was “inactive” and the Activity (HCT-116 [29]) was 40%. The ΔTm (Calf thymus DNA [30]) was 19.2 °C, the Drug uptake [35] was “Active” and the Drug uptake [36] was “Active”.

From ChEMBL document CHEMBL3217548, “Biological activity and DNA binding studies of 2-substituted benzimidazo[1,2-a]quinolines bearing different amino side chains” (Medchemcomm, 2013)
